Reference: US20050234248A1, “Method of producing preparations rich in tocotrienol” (Vis-Vitalis Lizenz- Und Handels Gmbh, priority 2002, published 2005)

Tested on: human serum loaded with p-benzoquinone (quinhydron radicals)
Experiment: Antioxidant capacity: human serum loaded with p-benzoquinone, colorimetric determination of p-dihydroquinone at 500 nm
Conditions: for Antiox-Titer: human serum, p-benzoquinone load, extinction at 500 nm/60 sec; for 1 mg of tocotrienol effect in μg radicals/ml · sec.: per 1 mg of tocotrienol; for Radicals μg/ml · sec: radicals inhibited, converted from extinction
Source text: In this examining method, human serum is subjected to the oxidative stress of a defined amount of para-benzoquinone. By adding defined amounts of the antioxidants to be tested (natural tocotrienol mixture of wheat bran oil, wheat germ oil, tocopherol acetat, D-alpha-tocopherol), the antioxidant load bearing capacity of the test sample is quantitated by calorimetric determination of the para-dihydroquinone that has been reduced from para-benzoquinone. […] Human donor blood is recovered from the vein without any additives and centrifuged at 800-1000 g after having been left standing for 1 h in the refrigerator (approximately +4° C.-+7° C.). The separated serum fractions are removed and pooled. The serum can be stored at -22° C. for about 14 days or immediately be used for the required measurements. To determine the antioxidant capacity of an antioxidant, the serum is radically loaded in stages. p-Benzoquinone was used for radical formation. In a physiological environment (pH=slightly alkaline), this substance is converted into the relatively stable radical anion of the quinhydrone system. In doing so, one hydrogen atom (1 proton/1 electron) of p-benzoquinone is taken up. The further reaction to the stable end product p-dihydroquinone takes place inversely proportionally, at pH 6.9-7.4 within minutes, and primarily linearly to the antioxidant content (reducing agent) in the reaction environment. Thus, the conditions for the applicability of Lambert-Beer's law have been met for determining the end product (dihydro-quinone) as a typically coloured substance. The comparatively stable radical anion (quinhydrone) is converted into the dihydroquinone in a second reduction step by taking up a further electrone (hydrogen from the available antioxidants). […] The calorimetric determination of the amount of end product is effected at λ=500 nm. […] With a linear extinction increase-and a linearly growing consumption of the antioxidant-active substance, the reacted portions can be precisely calculated from the stoichiometric reaction conditions. According to Michaelis/[…] and Pauling, respectively (Holleman-Wiberg; Lehrbuch der Anorganischen Chemie, de Gruyter-Verlag (1995)), the reaction intensity up to the dihydroquinone will depend on the ratio of the concentrations of oxidised to reduced. I.e., the higher the reduction (antioxidant) supply, the more the reaction will be inhibited, the content of the dihydroquinone forming will decrease. Thus, this reaction is excellently suited to be used in redox systems for finely dosed quantitative determinations for substances that are reducingly active. In three parallel measurement series, serum samples ([…] each) of the pool with p-benzoquinone are loaded in three stages (10, 20 and 30 μg). […] In the calculated reaction quantities, the mean of the 60 second value corresponds to the defined titer (=one third reaction). This value precisely results from the graphic illustration of the mean values as extinction curve. All further tests with antioxidant addition are comparatively related to this defined calibration value of the serum pool without antioxidant addition (i.e., with an increasing supply of antioxidants in the serum, the extinction must drop for dihydroquinone). Three parallel measurement series of serum samples were carried out under addition of 500 μg/ml of preparation according to the invention to determine the antioxidant capacity of the tocotrienol-rich wheat bran oils according to the invention. […] Referring to the curve of the extinction values of the comparative serum without additions and the stoichiometric reaction conditions applied (serum determination/concentration of p-benzoquinone/amount per ml of serum dilution), the conversion factor extinction to radical inhibition will result from this calibration system. […] For a more encompassing evaluation of the product quality, the comparison with other antioxidants is required. […]

Row | SMILES | Antiox-Titer | 1 mg of tocotrienol effect in μg radicals/ml · sec. [μg radicals/ml · sec.] | Radicals μg/ml · sec [μg/ml · sec]
1 | Cc1c(C)c2c(c(C)c1O)CC[C@@](C)(CCC[C@H](C)CCC[C@H](C)CCCC(C)C)O2 [D-alpha-Tocopherol, D-alpha-tocopherol] | 0.06 | 0.00674 | 1.6848
2 | CC(=O)Oc1c(C)c(C)c2c(c1C)CCC(C)(CCC[C@H](C)CCC[C@H](C)CCCC(C)C)O2 (stereo partly drawn) [Tocopherol acetate, D,L-alpha-tocopherol acetate] | 0.125 | 0.014 | 3.51
